In series [1] the test system is Dirofilaria immitis microfilariae. Briefly: In vitro assay 3: Dirofilaria immitis microfilariae (DIROIM L1), motility. To be noted: 72 h, read-out: EC50 (reduction of motility), 72 h incubation.
Another series has as its target C. elegans Slo-1a (Caenorhabditis elegans, UniProt Q95V25). To be noted: pE50 (negative decadic logarithm of EC50), CHO cells expressing C. elegans Slo-1a, voltage sensitive dye.
Series [2] deals with Litomosoides sigmodontis third-stage larvae. As to conditions: 72 h, read-out: EC50 (reduction of motility).
Experimental: In Vitro Assay 5: Litomosoides sigmodontis (LTMOSI L3)
10 Litomosoides sigmodontis third-stage larvae, which were freshly isolated from the pleural cavity of an infected rodent, were added to wells of a microtitre plate containing a nutrient medium and the test compound in DMSO. Compounds were tested in concentration-response assay in duplicate. Larvae exposed to DMSO and no test compounds were used as negative controls. Larvae were evaluated after 72 h of incubation with the compound. Efficacy was determined as the reduction of motility in comparison to the negative control. Based on the evaluation of a wide concentration range, concentration-response curves as well as EC50-values were calculated.
The test system of series [3] is Dirofilaria immitis third-stage larvae. In words: In vitro assay 4: Dirofilaria immitis (DIROIM L4), motility. As to conditions: 72 h, read-out: EC50 (reduction of motility).
Series [4] deals with Nippostrongylus brasiliensis. Briefly: In vitro assay 2: Nippostrongylus brasiliensis (NIPOBR), acetylcholine esterase readout. As to conditions: read-out: activity (reduction of AChE compared to negative control); for inhibition at 1 µg/mL: 1 μg/ml; for inhibition at 10 µg/mL: 10 μg/ml. An outline of the steps:
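Adult worms, washed in saline with antibiotics/antimycotic, were incubated in medium with compound (DMSO stock) at 10 μg/ml (10 ppm) or 1 μg/ml (1 ppm). Acetylcholine esterase activity in a medium aliquot was measured against a negative control as the anthelmintic readout.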

For a further series, the system named is Haemonchus contortus. To be noted: 120 h, read-out: activity (larval mortality).
The nature of series [5]: log P by HPLC on reversed phase columns (Method L0). As to conditions: for logP (Method L0) / logP (Method L0)^[a]: HPLC on reversed phase columns.
Experimental: Measurement of log P values was performed according to EEC directive 79/831 Annex V.A8 by HPLC (High Performance Liquid Chromatography) on reversed phase columns with the following methods: • ^[a] log P value is determined by measurement of LC-UV, in an acidic range, with 0.1% formic acid in water and acetonitrile as eluent (linear gradient from 10% acetonitrile to 95% acetonitrile). • ^[b] log P value is determined by measurement of LC-UV, in a neutral range, with 0.001 molar ammonium acetate solution in water and acetonitrile as eluent (linear gradient from 10% acetonitrile to 95% acetonitrile).
Calibration was done with straight-chain alkan-2-ones (with 3 to 16 carbon atoms) with known log P values (measurement of log P values using retention times with linear interpolation between successive alkanones).
The test system of a further series is Cooperia curticei. As to conditions: Cooperia curticei, 120 h, read-out: activity (larval mortality).

From US10889573B2, “Anthelmintic quinoline-3-carboxamide derivatives” (Bayer Animal Health GMBH, priority 2016, dated 2021) come the findings set out here.

Chain of C. elegans Slo-1a (Q95V25 whole entry): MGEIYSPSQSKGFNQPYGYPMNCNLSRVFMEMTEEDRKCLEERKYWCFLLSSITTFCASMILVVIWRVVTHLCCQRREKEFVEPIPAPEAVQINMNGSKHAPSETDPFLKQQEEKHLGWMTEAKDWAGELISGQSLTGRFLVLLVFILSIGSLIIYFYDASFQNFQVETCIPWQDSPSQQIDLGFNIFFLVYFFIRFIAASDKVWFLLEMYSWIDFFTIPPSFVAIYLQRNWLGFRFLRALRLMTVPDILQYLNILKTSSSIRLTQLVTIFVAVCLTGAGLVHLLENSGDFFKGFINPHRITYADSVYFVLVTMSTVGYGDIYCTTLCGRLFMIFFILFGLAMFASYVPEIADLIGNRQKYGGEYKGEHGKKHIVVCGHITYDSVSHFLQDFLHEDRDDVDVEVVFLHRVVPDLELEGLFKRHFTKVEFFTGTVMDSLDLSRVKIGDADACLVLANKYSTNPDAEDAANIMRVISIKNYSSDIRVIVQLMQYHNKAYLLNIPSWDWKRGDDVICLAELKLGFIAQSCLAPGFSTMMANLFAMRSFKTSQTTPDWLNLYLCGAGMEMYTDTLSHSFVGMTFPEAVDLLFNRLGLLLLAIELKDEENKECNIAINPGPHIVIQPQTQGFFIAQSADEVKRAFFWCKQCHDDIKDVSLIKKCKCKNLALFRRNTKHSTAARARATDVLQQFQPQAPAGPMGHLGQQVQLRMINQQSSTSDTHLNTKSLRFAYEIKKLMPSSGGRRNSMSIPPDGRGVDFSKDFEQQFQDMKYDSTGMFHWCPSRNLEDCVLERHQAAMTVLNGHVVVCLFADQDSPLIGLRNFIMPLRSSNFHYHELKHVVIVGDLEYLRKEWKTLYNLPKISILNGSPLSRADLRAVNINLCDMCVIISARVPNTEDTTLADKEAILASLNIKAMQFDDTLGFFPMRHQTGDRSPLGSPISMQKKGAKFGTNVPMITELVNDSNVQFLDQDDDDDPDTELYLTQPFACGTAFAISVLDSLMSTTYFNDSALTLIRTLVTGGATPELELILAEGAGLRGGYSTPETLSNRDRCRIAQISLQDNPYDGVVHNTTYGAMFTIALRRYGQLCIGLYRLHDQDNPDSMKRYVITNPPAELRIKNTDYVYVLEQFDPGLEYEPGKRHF
Experimental for C. elegans Slo-1a: In Vitro Assay 1: C. elegans Slo-1a—Action at a Recombinant C. elegans Cell Line
Cells were cultured at 37° C. and 5% CO2 in MEMalpha with Gutamax I (Invitrogen, Nr.: 32571), supplemented with 10% (v/v) heat inactivated fetal bovine serum (Invitrogen, Nr.: 10500), G418 (1 mg/ml, Invitrogen, Nr.: 10131). Cells were detached using Accutase (Sigma, Nr.: A6964).
Membrane Potential Measurements
Laboratory compound testing was performed on 384-well microtiter plates (MTPs, Greiner, Nr.: 781092). 8000 cells/well were plated onto 384-well MTPs and cultured for 20 to 24 hours at 37° C. and 5% CO2. After removal of the cell culture medium, the cells were washed once with tyrode (150 mM NaCl, 0.3 mM KCl, 2 mM CaCl2, 1 mM MgCl2, 0.8 mM NaH2PO4, 5 mM Glucose, 28 mM Hepes, pH 7.4) and then loaded with the voltage sensitive dye of the Membrane Potential Assay Kit diluted in tyrode for 1 h at room temperature.
After starting the measurement of fluorescence using a FLIPR Tetra (Molecular Devices, Exc. 510-545 nm, Emm. 565-625 nm), test compounds were added followed by the addition of KCl tyrode (final assay concentration: 70 mM KCl, 2 mM CaCl2, 1 mM MgCl2, 0.8 mM NaH2PO4, 5 mM Glucose, 28 mM Hepes, pH 7.4, including the voltage sensitive dye). The measurement was completed after 7 minutes.
The data were evaluated by using the ActivityBase XLfit software (IDBS) for curve fitting and calculation of the half-maximal effective concentration (EC50) and are reported as negative decadic logarithm (pE50).
Experimental for Cooperia curticei: In Vitro Assay 6: Cooperia curticei (COOPCU L3)
Solvent: dimethyl sulfoxide
Approximately 40 nematode larvae (Cooperia curticei) are transferred into a test tube containing the compound solution.
After 5 days percentage of larval mortality is recorded. 100% efficacy means all larvae are killed; 0% efficacy means no larvae are killed.
Experimental for Haemonchus contortus: In Vitro Assay 7: Haemonchus contortus (HAEMCO L3)
Solvent: dimethyl sulfoxide
Approximately 40 larvae of the red stomach worm (Haemonchus contortus) are transferred into a test tube containing compound solution.
After 5 days the percentage of larval mortality is recorded. 100% efficacy means all larvae are killed, 0% efficacy means no larvae are killed.

Consider `O=C(N[C@H]1CCc2ccccc21)c1cnc2c(-c3cc(Cl)cc(Cl)c3)cccc2c1Cl` [Example 3, 4-chloro-8-(3,5-dichlorophenyl)-N-[(1S)-2,3-dihydro-1H-inden-1-yl]quinoline-3-carboxamide], for which the EC50 in series [1] is under 1 µg/mL; on C. elegans Slo-1a, 3.16 to 31.6 nM; in series [2] it was under 1 µg/mL; in series [3], under 1 µg/mL.

As for `CN(C)c1c(C(=O)N[C@H]2CCOc3ccccc32)cnc2c(-c3cccc4[nH]ccc34)cccc12` [Example 73], the EC50 was under 0.1 µg/mL in series [1], 3.16 to 31.6 nM at C. elegans Slo-1a, under 1 µg/mL in series [2] and under 0.1 µg/mL in series [3]. In addition, the inhibition at 1 µg/mL in series [4] was over 80%. In addition, the inhibition at 10 µg/mL in series [4] was over 80%.

Consider `O=C(N[C@H]1CCOc2ccccc21)c1cnc2c(-c3cc(Cl)cc(Cl)c3)cccc2c1N1CCC1` [Example 135, 4-(azetidin-1-yl)-8-(3,5-dichlorophenyl)-N-[(4S)-3,4-dihydro-2H-chromen-4-yl]quinoline-3-carboxamide], for which the EC50 in series [1] was under 1 µg/mL; at C. elegans Slo-1a, under 3.16 nM. In addition, in the series on Haemonchus contortus, the mortality at 4 ppm was found to be 90%. Further, the mortality at 20 ppm in the series with Haemonchus contortus stood at 100%; in the series with Cooperia curticei, 80%. Besides, in series [4], the inhibition at 1 µg/mL is over 80%. The inhibition at 10 µg/mL in series [4] is over 80%. This compound gave a chromatographic logP in series [5] of 1.9.

In the case of `CCOC(=O)CN(C)c1c(C(=O)N[C@H]2CCOc3ccccc32)cnc2c(-c3cc(Cl)cc(Cl)c3)cccc12` [Example 137, ethyl N-{8-(3,5-dichlorophenyl)-3-[(4S)-3,4-dihydro-2H-chromen-4-ylcarbamoyl]quinolin-4-yl}-N-methylglycinate], the EC50 in series [1] is under 1 µg/mL. Further, the mortality at 20 ppm with Haemonchus contortus was found to be 80%. Also, in series [4], the inhibition at 1 µg/mL is over 80% and the inhibition at 10 µg/mL was over 80%. In series [5], the chromatographic logP came to 4.8. On C. elegans Slo-1a, this compound yielded a 50% effective concentration (EC50) of under 3.16 nM.

Take `CN(C)c1c(C(=O)N[C@H]2CCOc3ccccc32)cnc2c(-c3cccc(Cl)c3)c(F)ccc12` [Example 141, 8-(3-chlorophenyl)-N-[(4S)-3,4-dihydro-2H-chromen-4-yl]-4-(dimethyl-amino)-7-fluoroquinoline-3-carboxamide]: the EC50 is under 0.1 µg/mL in series [1], under 3.16 nM on C. elegans Slo-1a, under 0.1 µg/mL in series [2] and under 0.1 µg/mL in series [3]. Besides, in series [4], the inhibition at 10 µg/mL was over 80%.

Regarding `CN(CC(=O)O)c1c(C(=O)N[C@H]2CCOc3ccccc32)cnc2c(-c3cc(Cl)cc(Cl)c3)cccc12` [Example 150, N-{8-(3,5-dichlorophenyl)-3-[(4S)-3,4-dihydro-2H-chromen-4-ylcarbamoyl]quinolin-4-yl}-N-methylglycine], the results for the EC50 (in series [1]; on C. elegans Slo-1a; in series [3]) were under 0.1 µg/mL, 3.16 to 31.6 nM and under 1 µg/mL, respectively. In the series with Haemonchus contortus, the mortality at 4 ppm stood at 80%. Also, the values for the mortality at 20 ppm with Haemonchus contortus and in the series on Cooperia curticei were 90% and 100%, respectively. Further, in series [4], the inhibition at 1 µg/mL is over 80%. For the same compound, the chromatographic logP in series [5] amounted to 3.1.

With `CC(C)(C)OC(=O)CNc1c(C(=O)N[C@H]2CCOc3ccccc32)cnc2c(-c3cc(Cl)cc(Cl)c3)cccc12` [Example 182], the “logP (Method L0)” value in series [5] is 3.3.

As for `CN(CC(=O)OC(C)(C)C)c1c(C(=O)N[C@H]2CCOc3ccccc32)cnc2c(-c3cc(Cl)cc(Cl)c3)cccc12` [Example 183], the “logP (Method L0)” value in series [5] is listed as 6.

Take `CCCNc1c(C(=O)N[C@H]2CCOc3ccccc32)cnc2c(-c3cc(Cl)cc(Cl)c3)cccc12` [Example 184]: the “logP (Method L0)” value in series [5] worked out at 3.

For `NCCNc1c(C(=O)N[C@H]2CCOc3ccccc32)cnc2c(-c3cc(Cl)cc(Cl)c3)cccc12` [Example 185], in series [5], the “logP (Method L0)” value is recorded as 2.

For the compound `O=C(N[C@H]1CCOc2ccccc21)c1cnc2c(-c3cc(Cl)cc(Cl)c3)cccc2c1-n1ccnn1` [Example 188, 8-(3,5-dichlorophenyl)-N-[(4S)-3,4-dihydro-2H-chromen-4-yl]-4-(1H-1,2,3-triazol-1-yl)quinoline-3-carboxamide], the half-maximal effective concentration (EC50) is under 0.1 µg/mL in series [1] and 3.16 to 31.6 nM on C. elegans Slo-1a. Further, the chromatographic logP in series [5] is 4.5.

On to `O=C(N[C@H]1CCOc2ccccc21)c1cnc2c(-c3cc(Cl)cc(Cl)c3)cccc2c1-n1nccn1` [Example 189, 8-(3,5-dichlorophenyl)-N-[(4S)-3,4-dihydro-2H-chromen-4-yl]-4-(2H-1,2,3-triazol-2-yl)quinoline-3-carboxamide], for which the EC50 is under 0.1 µg/mL in series [1] and under 3.16 nM on C. elegans Slo-1a. Moreover, the inhibition at 1 µg/mL in series [4] is over 80%. The compound also came in with a chromatographic logP in series [5] of 5.

On to `CON(C)c1c(C(=O)N[C@H]2CCOc3ccccc32)cnc2c(-c3ccccc3Cl)cccc12` [Example 248], for which the “logP (Method L0)” value in series [5] came to 3.41.

With `CON(C)c1c(C(=O)N[C@H]2CCOc3ccccc32)cnc2c(-c3cccc(Cl)c3Cl)cccc12` [Example 249], in series [5], the “logP (Method L0)” value is reported as 3.99.

Regarding `CON(C)c1c(C(=O)N[C@H]2CCOc3ccccc32)cnc2c(-c3cc(Cl)cc(Cl)c3)cccc12` [Example 250], the “logP (Method L0)” value in series [5] turned out to be 4.87.

For the compound `CN(c1c(C(=O)N[C@H]2CCOc3ccccc32)cnc2c(-c3ccccc3Cl)cccc12)C1CC1` [Example 252], the “logP (Method L0)” value in series [5] came to 2.23.

Consider `CN(c1c(C(=O)N[C@H]2CCOc3ccccc32)cnc2c(-c3cccc(Cl)c3Cl)cccc12)C1CC1` [Example 253], for which the “logP (Method L0)” value in series [5] came out at 2.8.

As to `CN(c1c(C(=O)N[C@H]2CCOc3ccccc32)cnc2c(-c3cc(Cl)cc(Cl)c3)cccc12)C1CC1` [Example 254], in series [5], the “logP (Method L0)” value was 3.81.

For `CCOP(=O)(CN(C)c1c(C(=O)N[C@H]2CCOc3ccccc32)cnc2c(-c3cc(Cl)cc(Cl)c3)cccc12)OCC` [Example 285], the “logP (Method L0)” value in series [5] worked out at 4.62.

On to `O=C(N[C@H]1CCOc2ccccc21)c1cnc2c(-c3cc(Cl)cc(Cl)c3)cccc2c1N1CC2CC(C1)O2` [Example 300], for which the “logP (Method L0)” value in series [5] is reported as 2.6.

On to `O=C(N[C@H]1CCOc2ccccc21)c1cnc2c(-c3cc(Cl)cc(Cl)c3)cccc2c1N1CC2COCC(C1)O2` [Example 301], for which the “logP (Method L0)” value in series [5] is 3.3.

As for `Cn1c(=O)n(C)n(-c2c(C(=O)N[C@H]3CCOc4ccccc43)cnc3c(-c4cccc(Cl)c4Cl)cccc23)c1=O` [Example 321], the “logP (Method L0)^[a]” value in series [5] is listed as 3.37.

For the compound `CN(CCN1CCCC1=O)c1c(C(=O)N[C@H]2CCOc3ccccc32)cnc2c(-c3cc(Cl)cc(Cl)c3)cccc12` [Example 328], the “logP (Method L0)^[a]” value in series [5] is 3.3.

With `CN(c1c(C(=O)N[C@H]2CCOc3ccccc32)cnc2c(-c3cccc(Cl)c3Cl)cccc12)C1COC1` [Example 331, 8-(2,3-dichlorophenyl)-N-[(4S)-3,4-dihydro-2H-chromen-4-yl]-4-[methyl(oxetan-3-yl)amino]-quinoline-3-carboxamide], the EC50 in series [1] was under 0.1 µg/mL; at C. elegans Slo-1a, under 3.16 nM; in series [3], under 0.1 µg/mL. Moreover, the mortality at 20 ppm in the series with Haemonchus contortus was 100%; with Cooperia curticei, 90%. Moreover, the inhibition at 1 µg/mL in series [4] is over 80%. Also, the chromatographic logP in series [5] stood at 3.14.

For the compound `CCc1cc(Cl)cc(-c2cccc3c(CC)c(C(=O)N[C@H]4CCOc5ccccc54)cnc23)c1` [Example 351, 8-(3-chloro-5-ethylphenyl)-N-[(4S)-3,4-dihydro-2H-chromen-4-yl]-4-ethylquinoline-3-carboxamide], the EC50 was under 0.1 µg/mL in series [1], under 3.16 nM on C. elegans Slo-1a and under 0.1 µg/mL in series [3]. In series [5], this compound had a chromatographic logP of 5.1.

Consider `O=C(N[C@H]1CCOc2ccccc21)c1cnc2c(-c3cc(Cl)cc(Cl)c3)cccc2c1C1CC1` [Example 358], for which the “logP (Method L0)^[a]” value in series [5] is 4.9.

As for `CCSc1c(C(=O)N[C@H]2CCOc3ccccc32)cnc2c(-c3cccc(Cl)c3Cl)cccc12` [Example 366], the “logP (Method L0)^[a]” value in series [5] was found to be 4.79.

With `CCSc1c(C(=O)N[C@H]2CCOc3ccccc32)cnc2c(-c3cc(Cl)cc(Cl)c3)cccc12` [Example 367], the “logP (Method L0)^[a]” value in series [5] turned out to be 5.48.

Regarding `CC[S+]([O-])c1c(C(=O)N[C@H]2CCOc3ccccc32)cnc2c(-c3cccc(Cl)c3Cl)cccc12` (some centres unmarked) [Example 368], the “logP (Method L0)^[a]” value in series [5] is reported as 3.76.

`CC[S+]([O-])c1c(C(=O)N[C@H]2CCOc3ccccc32)cnc2c(-c3cc(Cl)cc(Cl)c3)cccc12` (some centres unmarked) [Example 370]: the “logP (Method L0)^[a]” value in series [5] was found to be 4.44.

Regarding `CCS(=O)(=O)c1c(C(=O)N[C@H]2CCOc3ccccc32)cnc2c(-c3cc(Cl)cc(Cl)c3)cccc12` [Example 371], the “logP (Method L0)^[a]” value in series [5] is reported as 4.54.

As for `Cc1nc2c(-c3cccc(Cl)c3Cl)cccc2c(N(C)C)c1C(=O)N[C@H]1CCOc2ccccc21` [Example 523], in series [5], the “logP (Method L0)^[a]” value came out at 2.11.

`O=C(N[C@H]1CCOc2ccccc21)c1cnc2c(-c3cc(F)cc(F)c3F)c(F)ccc2c1N1CCOCC1` [Example 540]: the “logP (Method L0)^[a]” value in series [5] amounted to 3.72.

On to `CNc1c(C(=O)N[C@H]2CCOc3ccccc32)cnc2c(-c3cc(F)c(OC(F)F)c(F)c3)c(F)ccc12` [Example 547], for which the “logP (Method L0)^[a]” value in series [5] was 1.81.

Take `O=C(N[C@H]1CCOc2ccccc21)c1cnc2c(-c3cc(F)cc(F)c3F)c(Cl)ccc2c1N1CCOCC1` [Example 576]: the “logP (Method L0)^[a]” value in series [5] was 3.90.

In general, EC50 refers to the concentration needed to bring the measured effect to its halfway point. In general, mortality refers to the share of the test organisms that died. Usually chromatographic logP stands for lipophilicity estimated from chromatographic retention. Lower therefore signals a more hydrophilic compound.
